This experiment deals with C57BL/6 mouse. Description: Promoting effect on hair growth (hair-regrown area/shaved area) in shaved C57BL/6 mouse. Format: in vivo. As to conditions: 2.5 mg spread on the back of mouse once a day.

Method: 6 weeks-old mouse (C57BL/6, 18-20 g, at the beginning of catagen, Orient Bio Inc. Seoul, Korea) was accustomed to the breeding environment for 1 week and anesthetized intramuscularly with an anesthetizer (2.5 mg/mouse, Ketamine, rompun, Bayer Korea Inc.). The back-hair of anesthetized mouse was removed by a grainer and the mice were divided into four groups consisting of 10 mice, respectively, i.e., (1) negative control group: treatment group with only solvent, (2) positive control group: treatment group with Minoxidil (0.5%, w/w), (3) comparative test group: treatment group with the extract prepared in Comparative Example 1 dissolved in adjuvant in a dose dependent manner, (4) test sample group: treatment group with the extract prepared in Examples dissolved in adjuvant in a dose dependent manner. 2.5 mg of the test samples was spread on the back of mouse once a day for 20 days.
The ratio of hair-regrown area/shaved area was quantitatively analyzed by image analyzer (Image-Pro, USA) after shooting the hair-grown area with digital camera (Canon, Japan) and the test result was scored to 5 scores, i.e., score 0: ineffective; score 1: merely effective; score 2: favorably effective; score 3; potently effective; score 4; most potently effective as shown in Table 2.

Consider `Nc1cc(N2CCCCC2)nc(N)[n+]1[O-]` [Positive control, Minoxidil], for which the Criteria result by setting is: (5th day) “IE (Ineffective (IE))”; (10th day) “FE (favorably effective (FE))”; (15th day) “PE (potently effective (PE))”; (20th day) “PE (potently effective (PE))”. Besides, the Hair growth ratio runs as follows: (5th day) 14%; (10th day) 42%; (15th day) 62%; (20th day) 68%. The Score is listed as 0 (0-20%) (5th day), 2 (40-60%) (10th day), 3 (60-70%) (15th day) and 3 (60-70%) (20th day).

The values are drawn from patent US20160263169A1, “COMPOSITION COMPRISING AN EXTRACT OF COMBINED HERB CONSISTING OF HEAT PROCESSED GINSENG, HOUTTUYNIAE HERBA, PERILLA LEAF AND TEA LEAF OR THE PROCESSED EXTRACT THEREOF AS AN ACTIVE INGREDIENT SHOWING HAIR-STIMULATING ACTIVITY AND PREVENTING ACTIVITY FROM HAIR LOSS, AND THE USE THEREOF” (GINSENG SCIENCE INC., priority 2015, published 2016).
